Measurements published in patent US12522594B2, “2-heteroaryl-3-oxo-2,3-dihydropyridazine-4-carboxamides for the treatment of cancer” (Deutsches Krebsforschungszentrum, priority 2017, dated 2026).

Assays:
AHR [1] = biological target: T1, AHR (Homo sapiens, UniProt P35869); experiment: In vitro assay 1: antagonism in human cell line (transactivation assay, U87 cells prestimulated with kynurenic acid, DRE firefly luciferase reporter); type: cell-based; design: host or cells: U87 glioblastoma cells, stably transfected with DRE firefly luciferase and renilla reporter constructs; conditions: 150 uM kynurenic acid, 20 hours, read-out: Assay 1: AHR-luc Hum Antagonism IC50
T1 sequence (P35869 11-848): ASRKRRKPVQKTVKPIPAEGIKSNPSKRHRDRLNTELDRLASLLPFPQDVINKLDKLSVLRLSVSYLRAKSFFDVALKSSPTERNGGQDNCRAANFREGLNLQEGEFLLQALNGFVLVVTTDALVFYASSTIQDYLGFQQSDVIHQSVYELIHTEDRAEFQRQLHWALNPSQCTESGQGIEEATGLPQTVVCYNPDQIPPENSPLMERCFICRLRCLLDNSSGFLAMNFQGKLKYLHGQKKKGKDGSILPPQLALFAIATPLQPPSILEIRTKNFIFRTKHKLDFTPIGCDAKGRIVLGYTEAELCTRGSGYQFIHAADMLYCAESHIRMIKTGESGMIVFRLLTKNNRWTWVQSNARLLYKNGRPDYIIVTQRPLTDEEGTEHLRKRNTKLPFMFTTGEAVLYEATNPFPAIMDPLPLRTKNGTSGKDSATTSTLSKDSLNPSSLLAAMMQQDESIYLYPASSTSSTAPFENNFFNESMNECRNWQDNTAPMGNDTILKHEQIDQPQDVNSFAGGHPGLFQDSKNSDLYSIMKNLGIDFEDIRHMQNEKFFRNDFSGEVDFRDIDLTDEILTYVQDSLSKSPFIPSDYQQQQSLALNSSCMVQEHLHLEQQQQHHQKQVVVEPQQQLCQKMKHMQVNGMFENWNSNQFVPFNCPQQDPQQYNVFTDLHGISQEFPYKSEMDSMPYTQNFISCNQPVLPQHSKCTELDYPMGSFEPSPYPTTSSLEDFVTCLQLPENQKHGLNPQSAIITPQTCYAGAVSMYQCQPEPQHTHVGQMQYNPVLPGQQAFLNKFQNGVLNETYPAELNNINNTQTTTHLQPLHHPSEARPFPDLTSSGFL
How it was run: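 Antagonism measured after kynurenic acid prestimulation in U87 cells that express AHR endogenously and stably harbor a firefly luciferase gene under DRE control plus a constitutive renilla construct. Positive and negative controls served for normalization.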

AHR [2] = biological target: T1, AHR; experiment: In vitro assay 2: agonism in human cell line (transactivation assay, U87 cells, DRE firefly luciferase reporter); type: cell-based; design: host or cells: U87 glioblastoma cells, stably transfected with DRE firefly luciferase and renilla reporter constructs; conditions: no kynurenic acid, 20 hours, read-out: Assay 2: AHR-luc Hum Agonism IC50
How it was run: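 Agonist readout: DRE firefly luciferase, with constitutive renilla reporter, in stably transfected U87 cells expressing AHR endogenously. Normalization used positive control (300 uM kynurenic acid) and negative control.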

SMILES	IC50 (AHR [1]) [nM]	IC50 (AHR [2]) [nM]
C[C@@H](CO)NC(=O)c1cc(-c2ccc(Cl)cc2)nn(-c2cnn(C3CCC3)c2)c1=O [Example 42, 6-(4-Chlorophenyl)-2-(1-cyclobutyl-1H-pyrazol-4-yl)-N-[(2S)-1-hydroxypropan-2-yl]-3-oxo-2,3-dihydropyridazine-4-carboxamide]	1570	> 20000
Cn1cc(-n2nc(-c3ccc(Cl)cc3)cc(C(=O)N[C@H]3CCCC[C@H]3O)c2=O)cn1 [Example 48, 6-(4-Chlorophenyl)-N-[(1S,2R)-2-hydroxycyclohexyl]-2-(1-methyl-1H-pyrazol-4-yl)-3-oxo-2,3-dihydropyridazine-4-carboxamide]	2.49	> 20000
Cn1cc(-n2nc(-c3ccc(C(F)F)nc3)cc(C(=O)N[C@H]3CCCC[C@H]3O)c2=O)cn1 [Example 54, 6-[6-(Difluoromethyl)pyridin-3-yl]-N-[(1S,2R)-2-hydroxycyclohexyl]-2-(1-methyl-1H-pyrazol-4-yl)-3-oxo-2,3-dihydropyridazine-4-carboxamide]	14.3	> 20000
Cn1cc(-n2nc(-c3ccc(OC(F)(F)F)cc3)cc(C(=O)NCC(C)(C)O)c2=O)cn1 [Example 59, N-(2-Hydroxy-2-methylpropyl)-2-(1-methyl-1H-pyrazol-4-yl)-3-oxo-6-[4-(trifluoromethoxy)phenyl]-2,3-dihydropyridazine-4-carboxamide]	20	> 20000
C[C@@H](CO)NC(=O)c1cc(-c2ccc(C(F)F)nc2)nn(-c2cnn(C)c2)c1=O [Example 66, 6-[6-(Difluoromethyl)pyridin-3-yl]-N-[(2S)-1-hydroxypropan-2-yl]-2-(1-methyl-1H-pyrazol-4-yl)-3-oxo-2,3-dihydropyridazine-4-carboxamide]	259	> 20000
Cn1cc(-n2nc(-c3ccc(C(F)(F)F)cc3)cc(C(=O)NCC(C)(C)O)c2=O)cn1 [Example 67, N-(2-Hydroxy-2-methylpropyl)-2-(1-methyl-1H-pyrazol-4-yl)-3-oxo-6-[4-(trifluoromethyl)phenyl]-2,3-dihydropyridazine-4-carboxamide]	4.3	> 20000
O=C(NC(CO)CO)c1cc(-c2ccc(Cl)cc2)nn(-c2cccnc2)c1=O [Example 70, 6-(4-Chlorophenyl)-N-(1,3-dihydroxypropan-2-yl)-3-oxo-2-(pyridin-3-yl)-2,3-dihydropyridazine-4-carboxamide]	159	> 20000
COC[C@H](CO)NC(=O)c1cc(-c2ccc(Cl)cc2)nn(-c2cccnc2)c1=O [Example 74, (+)-6-(4-Chlorophenyl)-N-[(2S)-1-hydroxy-3-methoxypropan-2-yl]-3-oxo-2-(pyridin-3-yl)-2,3-dihydropyridazine-4-carboxamide]	152	> 20000
COC[C@@H](CO)NC(=O)c1cc(-c2ccc(Cl)cc2)nn(-c2cccnc2)c1=O [Example 75, (−)-6-(4-Chlorophenyl)-N-[(2R)-1-hydroxy-3-methoxypropan-2-yl]-3-oxo-2-(pyridin-3-yl)-2,3-dihydropyridazine-4-carboxamide]	83.4	> 20000
C[C@H](CO)NC(=O)c1cc(-c2ccc(Cl)cc2)nn(-c2cncc(F)c2)c1=O [Example 81, 6-(4-Chlorophenyl)-2-(5-fluoropyridin-3-yl)-N-[(2R)-1-hydroxypropan-2-yl]-3-oxo-2,3-dihydropyridazine-4-carboxamide]	106	> 20000
CC(C)[C@@H](CO)NC(=O)c1cc(-c2ccc(Cl)cc2)nn(-c2cncc(F)c2)c1=O [Example 83, 6-(4-Chlorophenyl)-2-(5-fluoropyridin-3-yl)-N-[(2S)-1-hydroxy-3-methylbutan-2-yl]-3-oxo-2,3-dihydropyridazine-4-carboxamide]	4.61	> 20000
O=C(NC(CO)CO)c1cc(-c2ccc(Cl)cc2)nn(-c2cncc(F)c2)c1=O [Example 84, 6-(4-Chlorophenyl)-N-(1,3-dihydroxypropan-2-yl)-2-(5-fluoropyridin-3-yl)-3-oxo-2,3-dihydropyridazine-4-carboxamide]	163	> 20000
COC[C@@H](CO)NC(=O)c1cc(-c2ccc(Cl)cc2)nn(-c2cncc(F)c2)c1=O [Example 85, 6-(4-Chlorophenyl)-2-(5-fluoropyridin-3-yl)-N-[(2R)-1-hydroxy-3-methoxypropan-2-yl]-3-oxo-2,3-dihydropyridazine-4-carboxamide]	36	> 20000
COC[C@H](CO)NC(=O)c1cc(-c2ccc(Cl)cc2)nn(-c2cncc(F)c2)c1=O [Example 86, 6-(4-Chlorophenyl)-2-(5-fluoropyridin-3-yl)-N-[(2S)-1-hydroxy-3-methoxypropan-2-yl]-3-oxo-2,3-dihydropyridazine-4-carboxamide]	55.9	> 20000
O=C(N[C@@H](CO)C(F)(F)F)c1cc(-c2ccc(Cl)cc2)nn(-c2cccnc2)c1=O [Example 95, (−)-6-(4-Chlorophenyl)-3-oxo-2-(pyridin-3-yl)-N-[(2S)-1,1,1-trifluoro-3-hydroxypropan-2-yl]-2,3-dihydropyridazine-4-carboxamide]	62.3	> 20000
O=C(NC[C@@H](O)CO)c1cc(-c2ccc(Cl)cc2)nn(-c2cncc(F)c2)c1=O [Example 98, 6-(4-Chlorophenyl)-N-[(2R)-2,3-dihydroxypropyl]-2-(5-fluoropyridin-3-yl)-3-oxo-2,3-dihydropyridazine-4-carboxamide]	251	> 20000
O=C(NC[C@H](O)CO)c1cc(-c2ccc(Cl)cc2)nn(-c2cncc(F)c2)c1=O [Example 99, 6-(4-Chlorophenyl)-N-[(2S)-2,3-dihydroxypropyl]-2-(5-fluoropyridin-3-yl)-3-oxo-2,3-dihydropyridazine-4-carboxamide]	129	> 20000
O=C(N[C@H](CO)C(F)(F)F)c1cc(-c2ccc(Cl)cc2)nn(-c2cncc(F)c2)c1=O [Example 100, 6-(4-Chlorophenyl)-2-(5-fluoropyridin-3-yl)-3-oxo-N-[(2R)-1,1,1-trifluoro-3-hydroxypropan-2-yl]-2,3-dihydropyridazine-4-carboxamide]	12.7	> 20000
COC[C@H](CO)NC(=O)c1cc(-c2ccc(C(F)(F)F)cc2)nn(-c2cccnc2)c1=O [Example 111, N-[(2S)-1-Hydroxy-3-methoxypropan-2-yl]-3-oxo-2-(pyridin-3-yl)-6-[4-(trifluoromethyl)phenyl]-2,3-dihydropyridazine-4-carboxamide]	26.5	> 20000
O=C(NC[C@H](O)CO)c1cc(-c2ccc(C(F)(F)F)cc2)nn(-c2cccnc2)c1=O [Example 114, N-[(2S)-2,3-Dihydroxypropyl]-3-oxo-2-(pyridin-3-yl)-6-[4-(trifluoromethyl)phenyl]-2,3-dihydropyridazine-4-carboxamide]	85.5	> 20000
O=C(NC(CO)CO)c1cc(-c2ccc(C(F)(F)F)cc2)nn(-c2cccnc2)c1=O [Example 116, N-(1,3-Dihydroxypropan-2-yl)-3-oxo-2-(pyridin-3-yl)-6-[4-(trifluoromethyl)phenyl]-2,3-dihydropyridazine-4-carboxamide]	115	> 20000
C[C@@H](CO)NC(=O)c1cc(-c2ccc(Cl)cc2)nn(-c2cncnc2)c1=O [Example 120, 6-(4-Chlorophenyl)-N-[(2S)-1-hydroxypropan-2-yl]-3-oxo-2-(pyrimidin-5-yl)-2,3-dihydropyridazine-4-carboxamide]	67.9	> 20000
CC(C)(O)C(NC(=O)c1cc(-c2ccc(Cl)cc2)nn(-c2cccnc2)c1=O)C(F)(F)F (stereo not drawn) [Example 121, 6-(4-Chlorophenyl)-3-oxo-2-(pyridin-3-yl)-N-(1,1,1-trifluoro-3-hydroxy-3-methylbutan-2-yl)-2,3-dihydropyridazine-4-carboxamide]	2.54	> 20000
O=C(N[C@H]1CCCC[C@H]1O)c1cc(-c2ccc(Cl)cc2)nn(-c2cncc(F)c2)c1=O [Example 124, 6-(4-Chlorophenyl)-2-(5-fluoropyridin-3-yl)-N-[(1S,2R)-2-hydroxycyclohexyl]-3-oxo-2,3-dihydropyridazine-4-carboxamide]	3.64	> 20000
